According to publication PMC11861015, “Discovery of novel naphthalene-based diarylamides as pan-Raf kinase inhibitors with promising anti-melanoma activity: rational design, synthesis, in vitro and in silico screening” (Archives of Pharmacal Research, 2025):

Key:
Raf kinase enzyme = biological target: Raf kinase enzyme; design: method as in Buchstaller et al. [2011]; details: ref Buchstaller et al. [2011]; read-out: IC50 against the Raf kinase enzyme; cited from earlier work
melanoma cell line A375 [1] = test: Apoptosis analysis (PE-Annexin V / DAPI); details: dosage close to IC50, dot plot
Description: PE-conjugated Annexin V maintains its strong binding to phosphatidylserine (PS), serving as a sensitive marker for flow cytometric assessment of apoptotic cells. The staining with PE Annexin V precedes the loss of membrane integrity observed in the later phases of cell death, whether induced by apoptotic or necrotic processes. Therefore, PE Annexin V staining is commonly employed alongside a vital dye like propidium iodide (PI) or DAPI. This combination allows researchers to distinguish early apoptotic cells (DAPI negative, PE Annexin V positive) from viable cells with intact membranes, which exclude DAPI. In contrast, the membranes of dead or damaged cells become permeable to DAPI. […] The sequential movement of cells through these stages serves as an indicative pattern of apoptosis.
For a more appropriate investigation of cell death, the compound-treated cells and control A375 cells were stained with PE-Annexin V and DAPI. […] A kind of controlled cell death known as apoptosis may be identified with the use of Annexin V and the DAPI reagent. These two fluorophores are used in the dot plot and image data to identify early and late apoptotic cells.

c-Raf = c-Raf (Homo sapiens, UniProt P04049); test: In vitro biochemical kinase assay (Kinase HotSpot, Reaction Biology), one-point and 10-dose; details: ATP 10 μM; for inhibition at 10 µM: 10 µM compound, duplicate, read-out: In vitro protein kinase inhibition values (%) c-Raf
Sequence of c-Raf (P04049 whole entry): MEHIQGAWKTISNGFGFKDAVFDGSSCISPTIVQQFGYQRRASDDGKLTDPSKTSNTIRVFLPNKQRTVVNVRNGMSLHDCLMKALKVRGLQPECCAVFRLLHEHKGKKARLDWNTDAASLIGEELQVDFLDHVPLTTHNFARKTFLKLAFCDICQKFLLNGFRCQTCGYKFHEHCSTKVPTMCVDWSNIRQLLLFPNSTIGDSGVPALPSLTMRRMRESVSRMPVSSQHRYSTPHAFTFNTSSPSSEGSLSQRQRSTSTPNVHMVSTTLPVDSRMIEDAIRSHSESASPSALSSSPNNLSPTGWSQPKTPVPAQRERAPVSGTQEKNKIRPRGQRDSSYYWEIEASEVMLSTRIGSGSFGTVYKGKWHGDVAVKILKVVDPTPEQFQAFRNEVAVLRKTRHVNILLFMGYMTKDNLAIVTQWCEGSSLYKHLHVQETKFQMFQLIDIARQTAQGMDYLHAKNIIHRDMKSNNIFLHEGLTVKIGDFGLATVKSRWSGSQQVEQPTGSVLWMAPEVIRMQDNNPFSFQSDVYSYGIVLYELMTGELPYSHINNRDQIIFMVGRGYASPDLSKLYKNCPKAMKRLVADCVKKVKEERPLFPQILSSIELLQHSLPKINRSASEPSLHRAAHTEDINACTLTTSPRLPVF

melanoma cell line A375 [2] = test: Cell cycle analysis; details: A375 cells treated at IC50
[3] = system: human melanoma cell line (A375); test: In vitro cytotoxic activity (MTT assay); assay type: cell-based; details: for IC50: Homo sapiens, A-375, A375 cells, read-out: IC50 values (μM) against A375
Method: Melanoma skin cancer cell line (A375) of American Type Culture Collection (ATCC) was obtained from Korean Cell Line Bank (KCLB). The A375 cells were cultured in Dulbecco’s modified eagle’s medium (DMEM) (GenDepot) supplemented with 1% penicillin–streptomycin and 10% fetal bovine serum (FBS). The cells were maintained at 37 °C in a 5% CO2 with a 95% humid atmosphere. MTT assay, analysis of the cell cycle distribution, apoptosis analysis, and statistical analysis were carried out following known standard protocols adopted by our team earlier (Son et al. [2023]). […]

B-Raf^V600E = biological target: T1, B-Raf^V600E (Homo sapiens, UniProt P15056, V600E); test: In vitro biochemical kinase assay (Kinase HotSpot, Reaction Biology), one-point and 10-dose; details: ATP 10 μM; for inhibition at 10 µM: 10 µM compound, duplicate, read-out: In vitro protein kinase inhibition values (%) B-Raf^V600E
T1 construct: purchased Reaction Biology Co. (Kinase HotSpot service)
T1 sequence (P15056 whole entry V600E): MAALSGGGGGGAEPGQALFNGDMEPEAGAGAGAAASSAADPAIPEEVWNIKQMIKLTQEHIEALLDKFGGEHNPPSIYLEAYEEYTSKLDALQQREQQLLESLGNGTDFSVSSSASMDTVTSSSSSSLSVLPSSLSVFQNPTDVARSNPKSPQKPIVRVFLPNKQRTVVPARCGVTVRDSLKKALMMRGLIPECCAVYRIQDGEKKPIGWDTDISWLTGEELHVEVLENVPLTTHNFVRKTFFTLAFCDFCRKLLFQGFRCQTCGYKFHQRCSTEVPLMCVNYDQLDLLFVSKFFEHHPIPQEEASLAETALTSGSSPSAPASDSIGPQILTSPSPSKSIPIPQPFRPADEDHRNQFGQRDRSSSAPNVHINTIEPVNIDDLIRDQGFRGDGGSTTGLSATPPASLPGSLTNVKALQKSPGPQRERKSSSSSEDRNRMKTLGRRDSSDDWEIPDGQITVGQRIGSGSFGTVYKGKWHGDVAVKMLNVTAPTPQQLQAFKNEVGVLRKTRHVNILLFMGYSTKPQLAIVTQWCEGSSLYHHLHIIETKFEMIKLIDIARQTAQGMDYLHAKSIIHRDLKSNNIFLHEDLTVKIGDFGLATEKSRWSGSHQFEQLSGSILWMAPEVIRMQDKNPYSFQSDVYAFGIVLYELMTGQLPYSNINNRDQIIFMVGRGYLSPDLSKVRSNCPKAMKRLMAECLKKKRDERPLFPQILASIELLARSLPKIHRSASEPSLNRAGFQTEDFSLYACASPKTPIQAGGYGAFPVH

B-Raf^WT = biological target: T2, B-Raf^WT (Homo sapiens, UniProt P15056); test: as above; details: ATP 10 μM; for inhibition at 10 µM: 10 µM compound, duplicate, read-out: In vitro protein kinase inhibition values (%) B-Raf^WT
T2 construct: purchased Reaction Biology Co. (Kinase HotSpot service)
T2 sequence (P15056 whole entry): as the sequence (P15056 whole entry V600E) above, with E600V counted along it

ERK2/MAPK1 = biological target: T3, ERK2/MAPK1 (Homo sapiens, UniProt P28482); test: Kinase selectivity assay, one-point; assay type: biochemical; details: 10 µM compound, duplicate, ATP 10 μM
T3 construct: purchased Reaction Biology Co. (Kinase HotSpot service)
T3 sequence (P28482 whole entry): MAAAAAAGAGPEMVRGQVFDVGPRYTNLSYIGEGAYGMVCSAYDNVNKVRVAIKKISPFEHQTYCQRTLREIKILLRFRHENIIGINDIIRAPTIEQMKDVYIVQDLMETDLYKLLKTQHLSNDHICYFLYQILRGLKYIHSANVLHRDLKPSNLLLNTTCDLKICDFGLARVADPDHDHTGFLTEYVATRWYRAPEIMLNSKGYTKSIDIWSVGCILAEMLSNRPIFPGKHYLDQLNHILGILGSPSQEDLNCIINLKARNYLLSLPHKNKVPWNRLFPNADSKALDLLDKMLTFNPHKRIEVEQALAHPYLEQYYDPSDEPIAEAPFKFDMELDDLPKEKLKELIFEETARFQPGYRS
Method: (§1) The in vitro kinase inhibitory assays (both one-point and ten-point assays) were performed at Reaction Biology Co. (Malvern, PA, USA). Kinase HotSpot service was used for screening the tested derivatives. The experiment protocol is previously described in detail (Elkamhawy et al. [2016]).
(§2) No significant inhibition was observed over the other tested kinases.

ALK = biological target: T4, ALK (Homo sapiens, UniProt Q9UM73); test: Kinase selectivity assay, one-point; assay type: biochemical; details: 10 µM compound, duplicate, ATP 10 μM
T4 construct: purchased Reaction Biology Co. (Kinase HotSpot service)
T4 sequence (Q9UM73 19-1620): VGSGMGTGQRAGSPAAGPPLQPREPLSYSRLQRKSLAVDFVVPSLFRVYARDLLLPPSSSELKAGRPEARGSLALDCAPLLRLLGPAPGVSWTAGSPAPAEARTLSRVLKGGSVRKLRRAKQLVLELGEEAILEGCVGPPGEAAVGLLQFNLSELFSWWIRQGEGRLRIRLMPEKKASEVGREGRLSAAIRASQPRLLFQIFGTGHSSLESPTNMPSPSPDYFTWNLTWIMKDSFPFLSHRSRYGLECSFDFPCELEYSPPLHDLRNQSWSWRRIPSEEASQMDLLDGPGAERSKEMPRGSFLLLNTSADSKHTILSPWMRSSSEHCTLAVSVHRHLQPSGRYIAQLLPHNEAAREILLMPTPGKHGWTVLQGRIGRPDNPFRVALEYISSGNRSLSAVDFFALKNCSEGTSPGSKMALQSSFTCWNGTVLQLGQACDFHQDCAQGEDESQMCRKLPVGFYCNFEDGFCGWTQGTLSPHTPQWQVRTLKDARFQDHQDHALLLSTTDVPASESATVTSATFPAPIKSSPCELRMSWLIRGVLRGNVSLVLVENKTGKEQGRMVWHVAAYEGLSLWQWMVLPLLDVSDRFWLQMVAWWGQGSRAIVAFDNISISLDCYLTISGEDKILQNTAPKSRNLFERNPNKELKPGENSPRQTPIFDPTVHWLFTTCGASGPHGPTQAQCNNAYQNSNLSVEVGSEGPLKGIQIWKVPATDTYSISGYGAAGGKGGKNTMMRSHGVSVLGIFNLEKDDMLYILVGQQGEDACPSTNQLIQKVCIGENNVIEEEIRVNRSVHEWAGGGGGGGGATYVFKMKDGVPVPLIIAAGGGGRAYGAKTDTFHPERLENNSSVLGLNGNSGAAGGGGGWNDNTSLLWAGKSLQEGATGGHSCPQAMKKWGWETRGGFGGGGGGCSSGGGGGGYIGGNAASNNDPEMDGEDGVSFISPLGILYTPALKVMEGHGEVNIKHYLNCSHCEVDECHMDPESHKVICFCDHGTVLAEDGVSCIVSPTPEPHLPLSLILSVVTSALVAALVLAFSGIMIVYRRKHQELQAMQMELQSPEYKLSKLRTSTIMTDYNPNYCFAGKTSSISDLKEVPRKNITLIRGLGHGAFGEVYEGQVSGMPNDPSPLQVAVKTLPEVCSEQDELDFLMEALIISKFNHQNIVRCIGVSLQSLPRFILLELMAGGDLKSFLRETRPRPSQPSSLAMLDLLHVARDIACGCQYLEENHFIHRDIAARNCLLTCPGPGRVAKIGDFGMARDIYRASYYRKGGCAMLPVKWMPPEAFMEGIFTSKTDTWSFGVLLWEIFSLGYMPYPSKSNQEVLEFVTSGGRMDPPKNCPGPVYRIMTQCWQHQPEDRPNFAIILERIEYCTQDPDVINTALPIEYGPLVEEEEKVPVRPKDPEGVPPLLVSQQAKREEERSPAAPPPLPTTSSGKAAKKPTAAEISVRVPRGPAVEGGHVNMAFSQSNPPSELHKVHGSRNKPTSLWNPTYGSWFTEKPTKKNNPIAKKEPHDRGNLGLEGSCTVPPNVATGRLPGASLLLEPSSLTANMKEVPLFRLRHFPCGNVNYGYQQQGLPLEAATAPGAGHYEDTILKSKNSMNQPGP
Method: as §1, §2

TRKB = biological target: T5, TRKB (Homo sapiens, UniProt Q16620); test: Kinase selectivity assay, one-point; assay type: biochemical; details: 10 µM compound, duplicate, ATP 10 μM
T5 construct: purchased Reaction Biology Co. (Kinase HotSpot service)
T5 sequence (Q16620 32-822): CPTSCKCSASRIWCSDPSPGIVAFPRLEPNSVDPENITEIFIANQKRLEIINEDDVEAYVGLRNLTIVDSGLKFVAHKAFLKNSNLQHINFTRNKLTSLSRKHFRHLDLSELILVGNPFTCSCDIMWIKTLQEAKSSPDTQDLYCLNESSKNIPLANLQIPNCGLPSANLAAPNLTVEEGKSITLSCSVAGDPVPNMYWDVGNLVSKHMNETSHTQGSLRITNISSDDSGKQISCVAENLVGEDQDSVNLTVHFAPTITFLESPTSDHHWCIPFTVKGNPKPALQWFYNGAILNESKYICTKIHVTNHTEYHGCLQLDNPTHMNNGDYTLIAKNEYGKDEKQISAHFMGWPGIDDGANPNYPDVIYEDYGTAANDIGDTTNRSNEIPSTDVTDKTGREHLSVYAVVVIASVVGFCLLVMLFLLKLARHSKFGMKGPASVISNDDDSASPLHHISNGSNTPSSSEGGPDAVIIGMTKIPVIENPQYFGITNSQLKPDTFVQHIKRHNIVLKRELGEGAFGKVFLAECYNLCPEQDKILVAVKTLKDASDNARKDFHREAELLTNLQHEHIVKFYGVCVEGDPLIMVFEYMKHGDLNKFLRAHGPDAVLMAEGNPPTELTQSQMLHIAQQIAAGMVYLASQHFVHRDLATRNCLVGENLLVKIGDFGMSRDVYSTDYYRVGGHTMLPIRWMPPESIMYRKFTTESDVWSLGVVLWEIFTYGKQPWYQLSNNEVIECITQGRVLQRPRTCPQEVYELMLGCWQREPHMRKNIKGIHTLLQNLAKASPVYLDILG
Method: as §1, §2

mTOR/FRAP1 = biological target: T6, mTOR/FRAP1 (Homo sapiens, UniProt P42345); test: Kinase selectivity assay, one-point; assay type: biochemical; details: 10 µM compound, duplicate, ATP 10 μM
T6 construct: purchased Reaction Biology Co. (Kinase HotSpot service)
Method: as §1, §2

FGFR1 = biological target: T7, FGFR1 (Homo sapiens, UniProt P11362); test: Kinase selectivity assay, one-point; assay type: biochemical; details: 10 µM compound, duplicate, ATP 10 μM
T7 construct: purchased Reaction Biology Co. (Kinase HotSpot service)
T7 sequence (P11362 22-822): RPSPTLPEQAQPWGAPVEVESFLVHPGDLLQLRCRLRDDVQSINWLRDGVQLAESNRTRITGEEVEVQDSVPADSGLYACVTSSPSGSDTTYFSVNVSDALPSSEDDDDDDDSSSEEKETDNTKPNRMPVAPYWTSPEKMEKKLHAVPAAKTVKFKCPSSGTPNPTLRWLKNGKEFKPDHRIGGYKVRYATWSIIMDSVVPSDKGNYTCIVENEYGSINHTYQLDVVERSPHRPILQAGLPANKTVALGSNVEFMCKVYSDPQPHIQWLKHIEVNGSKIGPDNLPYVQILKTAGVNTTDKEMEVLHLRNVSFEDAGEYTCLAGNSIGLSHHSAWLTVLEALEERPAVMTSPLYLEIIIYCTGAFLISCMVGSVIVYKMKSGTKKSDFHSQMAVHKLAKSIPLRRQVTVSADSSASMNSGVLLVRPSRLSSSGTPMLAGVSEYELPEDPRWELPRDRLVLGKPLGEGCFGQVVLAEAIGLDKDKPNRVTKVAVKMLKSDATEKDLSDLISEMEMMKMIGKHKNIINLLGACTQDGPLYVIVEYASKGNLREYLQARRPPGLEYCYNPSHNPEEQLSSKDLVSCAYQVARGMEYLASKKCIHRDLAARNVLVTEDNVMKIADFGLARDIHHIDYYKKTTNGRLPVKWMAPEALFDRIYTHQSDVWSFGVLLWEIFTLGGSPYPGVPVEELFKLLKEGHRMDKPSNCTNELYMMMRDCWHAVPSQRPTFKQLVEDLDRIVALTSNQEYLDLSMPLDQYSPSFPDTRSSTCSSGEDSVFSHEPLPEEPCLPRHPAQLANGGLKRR
Method: as §1, §2

ROS/ROS1 = biological target: T8, ROS/ROS1 (Homo sapiens, UniProt P08922); test: Kinase selectivity assay, one-point; assay type: biochemical; details: 10 µM compound, duplicate, ATP 10 μM
T8 construct: purchased Reaction Biology Co. (Kinase HotSpot service)
Method: as §1, §2

[4] = system: Raf kinase enzymes (B-Raf^WT, B-Raf^V600E, and c-Raf); test: One-point kinase assay, summary across Raf kinases; assay type: biochemical; details: 10 μM compound, ATP 10 μM, span over B-Raf^WT
Method: as §1
To evaluate the new structural design of our compounds (9a–i), the biochemical activity was evaluated against Raf kinase enzymes (B-Raf^WT, B-Raf^V600E, and c-Raf) in one-point dose (10 μM) at duplicate mode using ATP concentration 10 μM. The results are presented in Table 2 and expressed in % inhibition.

[5] = 10-dose, threefold serial dilution from 20 μM

Row | Compound | inhibition at 10 µM (c-Raf) | inhibition at 10 µM (B-Raf^V600E) | inhibition at 10 µM (B-Raf^WT) | IC50 [3] | further results
1 | CNC(=O)c1cc2ccc(CCNC(=O)Nc3cc(C(F)(F)F)c(Cl)cc3OC)cc2cn1 [Compound 4] | – | – | – | – | IC50 (Raf kinase enzyme): 80 nM
2 | CNC(=O)c1cc(Oc2ccc3c(C(=O)Nc4ccc(N5CCOCC5)c(F)c4)cccc3c2)ccn1 [Compound 9e, 4-((5-((3-Fluoro-4-morpholinophenyl)carbamoyl)naphthalen-2-yl)oxy)-N-methylpicolinamide] | 76.3% | 24.9% | 42.1% | 4.46 ± 0.024 µM | IC50 values (μM) against A375 ([3]; A375 cells): weak cytotoxic activity; % inhibition across the tested Raf kinases [4]: 24.93–76.30%
3 | CNC(=O)c1cc(Oc2ccc3c(C(=O)Nc4cc(C)cc(Br)c4)cccc3c2)ccn1 [Compound 9h, 4-((5-((3-Bromo-5-methylphenyl)carbamoyl)naphthalen-2-yl)oxy)-N-methylpicolinamide] | 99.8% | 100% | 99.6% | 1.67 ± 0.032 µM | –
4 | CNC(=O)c1cc(Oc2ccc3c(C(=O)Nc4ccc(OC)c(Cl)c4)cccc3c2)ccn1 [Compound 9i, 4-((5-((3-Chloro-4-methoxyphenyl)carbamoyl)naphthalen-2-yl)oxy)-N-methylpicolinamide] | 99.6% | 100% | 99.7% | 1.75 ± 0.021 µM | –
5 | CNC(=O)c1cc(Oc2ccc(NC(=O)Nc3ccc(Cl)c(C(F)(F)F)c3)cc2)ccn1 [Sorafenib] | – | – | – | 0.92 ± 0.018 µM | N quadrant cells (melanoma cell line A375 [1]): 12.49%; early apoptosis (E.A) cells (melanoma cell line A375 [1]): 4.03%; late apoptosis (L.A) cells (melanoma cell line A375 [1]): 4.34%; live (L) cells (melanoma cell line A375 [1]): 79.14%; G0/G1 phase Percent (melanoma cell line A375 [2]): 34.08%; G2/M phase Percent (melanoma cell line A375 [2]): 13.41%; S phase Percent (melanoma cell line A375 [2]): 49.72%; G0/G1 phase Percent (melanoma cell line A375 [2]; listed as sorafenib): 34.08%; G2/M phase Percent (melanoma cell line A375 [2]; listed as sorafenib): 13.41%; S phase Percent (melanoma cell line A375 [2]; listed as sorafenib): 49.72%

Further lines, with some results ahead:

Row | inhibition at 10 µM (c-Raf) | inhibition at 10 µM (B-Raf^V600E) | inhibition at 10 µM (B-Raf^WT) | Compound | IC50 [3] | further results
6 | 99.8% | 100% | 99.4% | CNC(=O)c1cc(Oc2ccc3c(C(=O)Nc4cccc(OC(F)F)c4)cccc3c2)ccn1 [Compound 9a, 4-((5-((3-(Difluoromethoxy)phenyl)carbamoyl)naphthalen-2-yl)oxy)-N-methylpicolinamide] | 0.12 ± 0.013 µM | N quadrant cells (melanoma cell line A375 [1]): 6.69%; early apoptosis (E.A) cells (melanoma cell line A375 [1]): 9.11%; late apoptosis (L.A) cells (melanoma cell line A375 [1]): 3.54%; live (L) cells (melanoma cell line A375 [1]): 80.66%; IC50 (c-Raf; [5]): 2.86 nM; G0/G1 phase Percent (melanoma cell line A375 [2]): 18.92%; G2/M phase Percent (melanoma cell line A375 [2]): 6.45%; S phase Percent (melanoma cell line A375 [2]): 71.83%; IC50 (B-Raf^V600E; [5]): 18 nM; IC50 (B-Raf^WT; [5]): 49.7 nM; inhibition at 10 µM (ERK2/MAPK1): 0%; inhibition at 10 µM (ALK): 8.23%; inhibition at 10 µM (TRKB): 17.3%; inhibition at 10 µM (mTOR/FRAP1): 0%; inhibition at 10 µM (FGFR1): 86.2%; inhibition at 10 µM (ROS/ROS1): 0%
7 | 99.7% | 98.4% | 98.4% | CNC(=O)c1cc(Oc2ccc3c(C(=O)Nc4ccc(C(C)C)cc4)cccc3c2)ccn1 [Compound 9b, 4-((5-((4-Isopropylphenyl)carbamoyl)naphthalen-2-yl)oxy)-N-methylpicolinamide] | 0.17 ± 0.012 µM | –
8 | 98.9% | 88.6% | 92.7% | CNC(=O)c1cc(Oc2ccc3c(C(=O)Nc4ccc(I)cc4)cccc3c2)ccn1 [Compound 9c, 4-((5-((4-Iodophenyl)carbamoyl)naphthalen-2-yl)oxy)-N-methylpicolinamide] | 0.67 ± 0.017 µM | –
9 | 99.6% | 98.2% | 97.4% | CNC(=O)c1cc(Oc2ccc3c(C(=O)Nc4ccc(OC)c(F)c4)cccc3c2)ccn1 [Compound 9d, 4-((5-((3-Fluoro-4-methoxyphenyl)carbamoyl)naphthalen-2-yl)oxy)-N-methylpicolinamide] | 0.54 ± 0.019 µM | –
10 | 96.5% | 75.8% | 74.7% | CNC(=O)c1cc(Oc2ccc3c(C(=O)Nc4ccc(F)cc4)cccc3c2)ccn1 [Compound 9f, 4-((5-((4-Fluorophenyl)carbamoyl)naphthalen-2-yl)oxy)-N-methylpicolinamide] | 0.44 ± 0.008 µM | –
11 | 99.8% | 100% | 99.3% | CNC(=O)c1cc(Oc2ccc3c(C(=O)Nc4ccc(C)c(C)c4)cccc3c2)ccn1 [Compound 9g, 4-((5-((3,4-Dimethylphenyl)carbamoyl)naphthalen-2-yl)oxy)-N-methylpicolinamide] | 1.42 ± 0.013 µM | –
